# System: termites
# Assay: Repellency to termites (termites moving through the treated area)
# Assay type: in vivo
# Conditions: termites do not detect the active ingredient in the treated area and readily move through it, picking up a lethal dose
# Text: […], and in particular deltamethrin, an α-cyano-pyrethroid, are the preferred active ingredients of the insecticide formulation of this invention and provides the formulation with its insecticidal activity. The International Union of Pure and Applied Chemistry name for Deltamethrin is (S)-α-cyano-3-phenoxybenzyl (1R)-cis-3-(2,2-dibromovinyl)-2,2-dimethylcyclopropane-carboxylate. Deltamethrin is produced by AgrEvo Environmental Health of 95 Chestnut Ridge Road, Montvale, N.J., 07645. The concentration of deltamethrin in the insecticide formulation may range from 0.01 to 2% by weight of the insecticide without propellant, but is preferably from 0.01 to 0.5% by weight of the insecticide without propellant and most preferably from 0.10 to 0.30% by weight of the insecticide without the propellant.
compound,measurement,value
"CC1(C)[C@H](C(=O)O[C@H](C#N)c2cccc(Oc3ccccc3)c2)[C@@H]1C=C(Br)Br [deltamethrin, (S)-α-cyano-3-phenoxybenzyl (1R)-cis-3-(2,2-dibromovinyl)-2,2-dimethylcyclopropane-carboxylate]",Repellency to termites,non-repellant to termites

# Source: US7510701B2, “Aerosol-based insecticide compositions and methods of using the same” (Waterbury Companies, Inc., priority 2001, dated 2009)
